From patent US10513519B2, “Solid forms of (1S,4S)-4-(2-(((3S,4R)-3-fluorotetrahydro-2H-pyran-4-yl)amino)-8-((2,4,6-trichlorophenyl)amino)-9H-purin-9-yl)-1-methylcyclohexane-1-carboxamide and methods of their use” (Signal Pharmaceuticals, LLC, priority 2016, dated 2019)

Test system: cancer cell lines
Experiment: Multiplexed cytotoxicity assay: cell proliferation (relative cell count IC50, GI50)
Type: cell-based
Method: (§1) Cells are grown in RPMI1640, 10% FBS, 2 mM L-alanyl-L-Glutamine, 1 mM Na pyruvate or a special medium in a humidified atmosphere of 5% CO2 at 37° C. Cells are seeded into 384-well plates and incubated in a humidified atmosphere of 5% CO2 at 37° C. Compounds are added 24 h post cell seeding. At the same time, a time zero untreated cell plate is generated. After a 72 hour incubation period, cells are fixed and stained with fluorescently labeled antibodies and nuclear dye to allow visualization of nuclei, apoptotic cells and mitotic cells. Apoptotic cells are detected using an anti-active caspase-3 antibody. Mitotic cells are detected using an anti phospho-histone-3 antibody. Compounds are serially diluted 3.16-fold and assayed over 10 concentrations in a final assay concentration of 0.1% DMSO from the highest test concentration of 10 μM. Automated fluorescence microscopy was carried out using a Molecular Devices ImageXpress Micro XL high-content imager, and images are collected with a 4× objective.
(§2) Sixteen-bit TIFF images are acquired and analyzed with MetaXpress 5.1.0.41 software. Cell proliferation is measured by the signal intensity of the incorporated nuclear dye. The cell proliferation assay output is referred to as the relative cell count. To determine the cell proliferation end point, the cell proliferation data output is transformed to percentage of control (POC) using the following formula: POC=relative cell count(compound wells)/relative cell count(vehicle wells)×100
(§3) GI50 is the concentration needed to reduce the observed growth by half. This is the concentration that inhibits the growth to the level midway between growth in untreated cells and the number of cells seeded in the well (Time zero value). The IC50 values are calculated using nonlinear regression to fit data to a sigmoidal 4 point, 4 parameter One-Site dose response model, where: y(fit)=A+[(B−A)/(1+((C/x)^D))].
as §1, with “In another experiment, cells were grown” for “Cells are grown”, “Cells were” for “Cells are”, “Compounds were” for “Compounds are”, “plate was” for “plate is”, “cells were” for “cells are”, “images were” for “images are”
as §2, with “images were” for “images are”, “proliferation was” for “proliferation is”, “output was” for “output is”
as §3, with “GI50 refers to” for “GI50 is”, “This corresponds to” for “This is”, “values were” for “values are”

[1] = Homo sapiens, SK-N-AS, 72 h, SKNAS, CNS, Neuroblastoma
[2] = Homo sapiens, SK-N-DZ, 72 h, SKNDZ, CNS, Neuroblastoma
[3] = Homo sapiens, SK-N-FI, 72 h, SKNFI, CNS, Neuroblastoma
[4] = Homo sapiens, SK-NEP-1, SKNEP1 (Kidney)
[5] = Homo sapiens, SK-OV-3, 72 h, SKOV3, Female GU, Ovary, 72 h
[6] = Homo sapiens, SK-UT-1, 72 h, SKUT1, Soft Tissue, Sarcoma, 72 h
[7] = Homo sapiens, SNB-19, SNB19 (CNS, Glioma)
[8] = Homo sapiens, SNU1, 72 h, SNU1, Stomach, 72 h
[9] = Homo sapiens, SNU-5, 72 h, SNU5, Stomach, 72 h
[10] = Homo sapiens, SNU-16, 72 h, SNU16, Stomach, 72 h
[11] = Homo sapiens, SNU-423, SNU423 (Liver)
[12] = Homo sapiens, SNU-C2B, SNUC2B (Colon)
[13] = Homo sapiens, ST486, ST486 (Hematopoietic and lymphoid, Lymphoma)
[14] = Homo sapiens, SU-DHL10, SUDHL10 (Hematopoietic and lymphoid, Lymphoma)
[15] = Homo sapiens, SU-DHL-4, SUDHL4 (Hematopoietic and lymphoid, Lymphoma)
[16] = Homo sapiens, SU-DHL-5, SUDHL5 (Hematopoietic and lymphoid, Lymphoma)
[17] = Homo sapiens, SU-DHL-8, SUDHL8 (Hematopoietic and lymphoid, Lymphoma)
[18] = Homo sapiens, SU.86.86, 72 h, SU8686, Pancreas, 72 h
[19] = Homo sapiens, SUP-T1, SUPT1 (Hematopoietic and lymphoid, Lymphoma)
[20] = Homo sapiens, SW13, SW13 (Endocrine, Adrenal gland)
[21] = Homo sapiens, SW48, SW48 (Colon)
[22] = Homo sapiens, SW480, SW480 (Colon)
[23] = Homo sapiens, SW684, 72 h, SW684, Soft Tissue, Sarcoma, 72 h
[24] = Homo sapiens, SW837, SW837 (Colon)
[25] = Homo sapiens, SW872, 72 h, SW872, Soft Tissue, Sarcoma, 72 h
[26] = Homo sapiens, SW900, 72 h, SW900, Lung, SCLC, 72 h
[27] = Homo sapiens, SW948, SW948 (Colon)
[28] = Homo sapiens, SW 954, 72 h, SW954, Female GU, Vulva, 72 h
[29] = Homo sapiens, SW 962, 72 h, SW962, Female GU, Vulva, 72 h
[30] = Homo sapiens, SW982, 72 h, SW982, Soft Tissue, Sarcoma, 72 h
[31] = Homo sapiens, SW1088, SW1088 (CNS, Glioma)
[32] = Homo sapiens, SW1353, 72 h, SW1353, Soft Tissue, Osteosarcoma, 72 h
[33] = Homo sapiens, SW1417, SW1417 (Colon)
[34] = Homo sapiens, SW1463, SW1463 (Colon)
[35] = Homo sapiens, SW1783, SW1783 (CNS, Glioma)
[36] = Homo sapiens, SW-403, SW403 (Colon)
[37] = Homo sapiens, SW-620, SW620 (Colon)
[38] = Homo sapiens, SiHa, SIHA (Female GU, Cervix)
[39] = Homo sapiens, T47D, T47D (Breast)
[40] = Homo sapiens, T98G, T98G (CNS, Glioma)
[41] = Homo sapiens, TCC-SUP, TCCSUP (Bladder)
[42] = Homo sapiens, THP-1, THP1 (Hematopoietic and lymphoid, Leukemia)
[43] = Homo sapiens, U2OS, 72 h, Soft Tissue, Osteosarcoma
[44] = Homo sapiens, U138-MG, U138MG (CNS, Glioma)
[45] = Homo sapiens, U-87 MG, U87MG (CNS, Glioma)
[46] = Homo sapiens, U-118-MG, U118MG (CNS, Glioma)
[47] = Homo sapiens, UMUC3, UMUC3 (Bladder)
[48] = Homo sapiens, WM 266-4, 72 h, WM2664, Skin, Melanoma, 72 h
[49] = Homo sapiens, WiDr, WIDR (Colon)
[50] = Homo sapiens, YAPC, 72 h, Pancreas
[51] = Homo sapiens, ZR-75-1, ZR751 (Breast)
[52] = Hs 445, HS445 (Hematopoietic and lymphoid, Lymphoma)
[53] = KG1 (Hematopoietic and lymphoid, Leukemia)
[54] = KHOS-240S, 72 h, KHOS240S, Soft Tissue, Osteosarcoma
[55] = MS751, 72 h, MS751, Female GU, Ovary, 72 h
[56] = MX1 (Hematopoietic and lymphoid, Leukemia)
[57] = NAMALWA (Hematopoietic and lymphoid, Lymphoma)
[58] = OE21, 72 h, OE21, Head and Neck, Esophageal, 72 h
[59] = RAMOSRA1 (Hematopoietic and lymphoid, Lymphoma)
[60] = SKO-007, 72 h, SKO007, Hematopoietic and lymphoid, Myeloma, 72 h
[61] = SR (Hematopoietic and lymphoid, Lymphoma)
[62] = SW579, 72 h, SW579, Endocrine, Thyroid, 72 h
[63] = TE 381.T, 72 h, TE381T, Soft Tissue, Sarcoma
[64] = TF1 (Hematopoietic and lymphoid, Leukemia)
[65] = TUR (Hematopoietic and lymphoid, Lymphoma)

Compound: C[C@]1(C(N)=O)CC[C@@H](n2c(Nc3c(Cl)cc(Cl)cc3Cl)nc3cnc(N[C@@H]4CCOC[C@H]4F)nc32)CC1 [Compound 1, cis-4-[2-{[(3S,4R)-3-fluorooxan-4-yl]amino}-8-(2,4,6-trichloroanilino)-9H-purin-9-yl]-1-methylcyclohexane-1-carboxamide]
- GI50 [1]: 48.9 nM
- IC50 [1]: 132 nM
- GI50 [2]: 7400 nM
- IC50 [2]: > 10000 nM
- GI50 [3]: 15.1 nM
- IC50 [3]: 135 nM
- GI50 [4]: > 10000 nM
- IC50 [4]: > 10000 nM
- GI50 [5]: 547 nM
- IC50 [5]: > 10000 nM
- GI50 [6]: > 10000 nM
- IC50 [6]: > 10000 nM
- GI50 [7]: 163 nM
- IC50 [7]: 244 nM
- GI50 [8]: 35.5 nM
- IC50 [8]: 63.1 nM
- GI50 [9]: 36.8 nM
- IC50 [9]: 94.3 nM
- GI50 [10]: > 10000 nM
- IC50 [10]: > 10000 nM
- GI50 [11]: 192 nM
- IC50 [11]: 276 nM
- GI50 [12]: 54.4 nM
- IC50 [12]: 722 nM
- GI50 [13]: 5020 nM
- IC50 [13]: 6140 nM
- GI50 [14]: 1230 nM
- IC50 [14]: 1400 nM
- GI50 [15]: 168 nM
- IC50 [15]: 332 nM
- GI50 [16]: 1.1 nM
- IC50 [16]: 1.3 nM
- GI50 [17]: 19.3 nM
- IC50 [17]: 40.6 nM
- GI50 [18]: 63.5 nM
- IC50 [18]: 132 nM
- GI50 [19]: 19.6 nM
- IC50 [19]: 46.6 nM
- GI50 [20]: 71.1 nM
- IC50 [20]: 135 nM
- GI50 [21]: 1.8 nM
- IC50 [21]: 3.1 nM
- GI50 [22]: 18.4 nM
- IC50 [22]: 31.1 nM
- GI50 [23]: 86.9 nM
- IC50 [23]: 370 nM
- GI50 [24]: 172 nM
- IC50 [24]: 348 nM
- GI50 [25]: 105 nM
- IC50 [25]: 136 nM
- GI50 [26]: 21.6 nM
- IC50 [26]: 39.9 nM
- GI50 [27]: 195 nM
- IC50 [27]: 327 nM
- GI50 [28]: 114 nM
- IC50 [28]: 142 nM
- GI50 [29]: 82.8 nM
- IC50 [29]: 232 nM
- GI50 [30]: 15.6 nM
- IC50 [30]: 61.4 nM
- GI50 [31]: 3350 nM
- IC50 [31]: 5980 nM
- GI50 [32]: 184 nM
- IC50 [32]: 292 nM
- GI50 [33]: 8.8 nM
- IC50 [33]: 35.1 nM
- GI50 [34]: 135 nM
- IC50 [34]: 181 nM
- GI50 [35]: 5920 nM
- IC50 [35]: 9850 nM
- GI50 [36]: 47.6 nM
- IC50 [36]: 173 nM
- GI50 [37]: 49.2 nM
- IC50 [37]: 79.8 nM
- GI50 [38]: > 10000 nM
- IC50 [38]: > 10000 nM
- GI50 [39]: > 10000 nM
- IC50 [39]: > 10000 nM
- GI50 [40]: > 10000 nM
- IC50 [40]: > 10000 nM
- GI50 [41]: 2210 nM
- IC50 [41]: 6590 nM
- GI50 [42]: 25.1 nM
- IC50 [42]: 49.5 nM
- GI50 [43]: 230 nM
- IC50 [43]: 373 nM
- GI50 [44]: 53 nM
- IC50 [44]: > 10000 nM
- GI50 [45]: 69.2 nM
- IC50 [45]: 101 nM
- GI50 [46]: 175 nM
- IC50 [46]: > 10000 nM
- GI50 [47]: 149 nM
- IC50 [47]: 201 nM
- GI50 [48]: 12 nM
- IC50 [48]: 35.4 nM
- GI50 [49]: 10.4 nM
- IC50 [49]: 13.3 nM
- GI50 [50]: 183 nM
- IC50 [50]: 670 nM
- GI50 [51]: 94.3 nM
- IC50 [51]: 7700 nM
- GI50 [52]: 14.3 nM
- IC50 [52]: 37.7 nM
- GI50 (Hs766T, 72 h, Pancreas): 34.3 nM
- IC50 (Hs766T, 72 h, Pancreas): 79.3 nM
- GI50 (J82 (Bladder)): > 10000 nM
- IC50 (J82 (Bladder)): > 10000 nM
- GI50 [53]: 1.7 nM
- IC50 [53]: 32.5 nM
- GI50 [54]: > 10000 nM
- IC50 [54]: > 10000 nM
- GI50 (KPL-1, KPL1 (Breast)): > 10000 nM
- IC50 (KPL-1, KPL1 (Breast)): > 10000 nM
- GI50 [55]: 6910 nM
- IC50 [55]: 9510 nM
- GI50 (MT3 (Breast)): 674 nM
- IC50 (MT3 (Breast)): 1080 nM
- GI50 [56]: 40.1 nM
- IC50 [56]: 61.9 nM
- GI50 [57]: 18.1 nM
- IC50 [57]: 23.9 nM
- GI50 (OCUG-1, OCUG1 (Liver)): 464 nM
- IC50 (OCUG-1, OCUG1 (Liver)): 1290 nM
- GI50 [58]: 93.9 nM
- IC50 [58]: 124 nM
- GI50 [59]: 3660 nM
- IC50 [59]: 3840 nM
- GI50 (RKO (Colon)): 35.3 nM
- IC50 (RKO (Colon)): 40.5 nM
- GI50 (RKOAS451, RKOAS451 (Colon)): 40.5 nM
- IC50 (RKOAS451, RKOAS451 (Colon)): 44.9 nM
- GI50 (SH4 (Skin, Melanoma)): 20.8 nM
- IC50 (SH4 (Skin, Melanoma)): 29 nM
- GI50 [60]: 27.4 nM
- IC50 [60]: 482 nM
- GI50 [61]: 1420 nM
- IC50 [61]: 1840 nM
- GI50 [62]: 47.7 nM
- IC50 [62]: 70.8 nM
- GI50 (T24 (Bladder)): 233 nM
- IC50 (T24 (Bladder)): 274 nM
- GI50 [63]: 7.6 nM
- IC50 [63]: 12.8 nM
- GI50 [64]: 1.5 nM
- IC50 [64]: 9.5 nM
- GI50 [65]: 41.5 nM
- IC50 [65]: 53.9 nM
- GI50 (Y79 (Eye-retinoblastoma, Eye)): > 10000 nM
- IC50 (Y79 (Eye-retinoblastoma, Eye)): > 10000 nM
